Consider two compounds from patent EP4480497A1, “BIO-CONJUGATES FOR ONCOLOGY” (priority 2023, dated 2024).

SMILES strings stand for the structures.

The IC50 is the point on the concentration scale where inhibition reaches its midpoint. A higher IC50 goes with weaker potency in that assay.

Data set [1] concerns triple negative breast tumour cells MDA-MB231. Briefly: ATPlite luminescence ATP assay in MDA-MB231 cells (Example 5). Conditions: MDA-MB231, ATP assay after a 72h treatment, Figure 5A. Type of data set: cell-based. As for the experimental part: Dose-response curves in triple negative breast tumour cells MDA-MB231 and IC50 values obtained from an ATP assay after a 72h treatment with CROMOC36, CROMOC36-DM1 and the unconjugated DM1 molecule is shown in Figure 5A. The x-axis indicates the drug concentration (nM) in log scale, and the y-axis indicates the % of cell viability as measured by the ATP levels in the treated cells relative to the DMSO control.
The cytotoxic effect of CROMOC-DM1 conjugates was evaluated on the MDA-MB-231 cell line by means of the ATPlite Luminescence ATP Detection Assay System. The cytotoxic effect of the different CROMOC conjugated with DM-1 was compared to that of non-conjugated CROMOCs. Cells treated only with the medium were used as control. Briefly, the cells were seeded in black 96-well plates at a density of 2000 cells/well. After 24 h, cells were treated with increasing concentrations of the conjugates (range 0.02 - 500 nM in CROMOC, n=11) for 72 hours. To quantify ATP production, cells were treated following the manufacturer's instructions, and luminescence was quantified by means of a Victor Nivo multi-plate reader (Perkin Elmer, Waltham, MA, USA). The percentage of cell viability was determined as (luminescencetreated cells/luminescencecontrol cells) × 100. IC50 values were calculated using GraphPad Prism 9.0 (San Diego, CA, USA) by a nonlinear regression model.
In general terms: ATP-based viability assays read luminescence as a measure of living cells.

The subject of data set [2] is tumour xenograft LIXF HEP3B (hepatocellular carcinoma). The experiment in a line: Orthotopic hepatocellular carcinoma xenograft, anti-tumour efficacy (Example 7). Conditions: seven to eight mice per group, each substance at its one regimen. The format is in vivo, NMRI nude mice.
Protocol: The experiment comprised a reference group (Group 1) dosed with phosphate buffered saline and four treatment groups (Groups 2 to 5). […] The daily dose was split, the daily dosing interval was 6 hours. Mice were either sacrificed individually when their general condition required sacrifice or at termination of the experiment. The group size at the start of dosing was seven to eight mice per group, bearing orthotopic growing LIXF HEP3B.
Data set [3] can be described thus: Tolerability (mortality, body weight, skin) in the LIXF HEP3B xenograft study (Example 7). Type of data set: in vivo, NMRI nude mice.
Protocol: The experiment comprised a reference group (Group 1) dosed with phosphate buffered saline and four treatment groups (Groups 2 to 5). […] CROMOC62 was given subcutaneously every second week for 4 weeks at 32 (induction dosing on day 0) and 16 (day 14 and 28) mg/kg/d. Sorafenib was applied daily for 6 days in mono and combined therapy and additional 6 days (9-14) exclusively in monotherapy per oral at 200 mg/kg/d. The daily dose was split, the daily dosing interval was 6 hours. Mice were either sacrificed individually when their general condition required sacrifice or at termination of the experiment. The group size at the start of dosing was seven to eight mice per group, bearing orthotopic growing LIXF HEP3B. […] CROMOC62 was given at one dose levels (32 mg/kg on day 0 and 16 mg/kg/d on days 14 and 28) in monotherapy or in combination with sorafenib which was given at one dose level (200 mg/kg/d on days 0-5). The effect of sorafenib monotherapy was also assessed (200 mg/kg/d on day 0-5 and 9-14).

Consider `COc1cc2cc(c1Cl)N(C)C(=O)C[C@H](OC(=O)[C@H](C)N(C)C(=O)CCS)[C@]1(C)O[C@H]1[C@H](C)[C@@H]1C[C@@](O)(NC(=O)O1)[C@H](OC)/C=C/C=C(\C)C2` [DM1, DM1 Maytansinoid], for which the IC50 in data set [1] is around 0.95 nM.

As for `CNC(=O)c1cc(Oc2ccc(NC(=O)Nc3ccc(Cl)c(C(F)(F)F)c3)cc2)ccn1` [sorafenib], in data set [2], the “complete remissions (number of mice)” value is listed as “five” and the “partial remissions (number of mice)” value is reported as “two”. Further, the mortalities entry in data set [3] (LIXF HEP3B study, seven to eight mice per group, each substance at its one regimen) is “One out of eight”. The “maximum body weight loss” value in data set [3] (on day 16, sorafenib 12x200 mg/kg/d per oral) is 2.5%.
